Here are results for nine compounds from ChEMBL document CHEMBL1146140 (Bioorg Med Chem Lett, 2006).

Each structure is given as a SMILES string.

The test system of assay [1] is Plasmodium falciparum. Briefly: Antimalarial activity against Plasmodium falciparum Dd2. The class given is functional, organism-based.
Assay [2] deals with T1, 1-deoxy-D-xylulose 5-phosphate reductoisomerase (Escherichia coli K-12, UniProt P45568).
T1 sequence (P45568 whole entry): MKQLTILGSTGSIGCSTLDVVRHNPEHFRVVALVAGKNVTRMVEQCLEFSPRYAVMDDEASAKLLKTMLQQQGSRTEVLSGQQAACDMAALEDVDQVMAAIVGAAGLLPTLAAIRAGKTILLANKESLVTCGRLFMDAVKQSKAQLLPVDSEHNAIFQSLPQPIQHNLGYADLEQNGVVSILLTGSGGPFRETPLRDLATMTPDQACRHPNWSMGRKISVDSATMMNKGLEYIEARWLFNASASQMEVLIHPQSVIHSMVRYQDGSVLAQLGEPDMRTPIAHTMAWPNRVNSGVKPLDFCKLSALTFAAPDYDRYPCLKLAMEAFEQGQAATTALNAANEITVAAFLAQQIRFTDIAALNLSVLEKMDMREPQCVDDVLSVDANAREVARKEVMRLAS
Briefly: Inhibition of recombinant Escherichia coli DXR.

In assay [3] the test system is Plasmodium falciparum. Briefly: Antimalarial activity against Plasmodium falciparum 3D7. The assay is classed as functional, organism-based.

`O=CN(O)CCC(c1ccc(Cl)c(Cl)c1)P(=O)(O)O` (stereo not given): the IC50 is 28 nM in the assay with Plasmodium falciparum [1], 59 nM in assay [2] and 90 nM with Plasmodium falciparum [3].
For `CC(=O)N(O)CCC(c1ccc(Cl)c(Cl)c1)P(=O)(O)O` (stereo not given), in that order: 90 nM, 119 nM and 250 nM.
On to `CC(=O)N(O)CCC(c1ccccc1)P(=O)(O)O` (stereo not given), for which the IC50 with Plasmodium falciparum [1] is 350 nM; with Plasmodium falciparum [3], 550 nM.
Turning to `CC(=O)N(O)CCC(c1ccc(C)cc1)P(=O)(O)O` (stereo not given), the IC50 in the assay with Plasmodium falciparum [1] came out at 220 nM; in assay [2] it was 396 nM; with Plasmodium falciparum [3], 950 nM.
As to `COc1ccc(C(CCN(O)C=O)P(=O)(O)O)cc1` (stereo not given), the IC50 with Plasmodium falciparum [1] was found to be 200 nM; in assay [2] it was 156 nM; with Plasmodium falciparum [3], 360 nM.
With `CC(=O)N(O)CCC(c1ccc(Cl)cc1)P(=O)(O)O` (stereo not given), the values for the IC50 (with Plasmodium falciparum [1]; in assay [2]; with Plasmodium falciparum [3]) were 95 nM, 99 nM and 350 nM, respectively.
Consider `COc1ccc(C(CCN(O)C(C)=O)P(=O)(O)O)cc1` (stereo not given), for which the IC50 in the assay on Plasmodium falciparum [1] was 270 nM; in assay [2], 459 nM; in the assay on Plasmodium falciparum [3] it was 850 nM.
On to `O=CN(O)CCCP(=O)(O)O` [FOSMIDOMYCIN], for which the figures for the half-inhibitory concentration (IC50) in the assay with Plasmodium falciparum [1] and in the assay on Plasmodium falciparum [3] were 360 nM and 1100 nM, respectively.
In the case of `CC(=O)N(O)CCCP(=O)(O)O` [FR-900098], the IC50 in the assay with Plasmodium falciparum [1] came out at 180 nM; in assay [2], 30 nM; in the assay with Plasmodium falciparum [3] it was 320 nM.

A word on the IC50: it is the concentration that gives 50% inhibition.
